From PMC8406801, “Naringenin Inhibits Platelet Activation and Arterial Thrombosis Through Inhibition of Phosphoinositide 3-Kinase and Cyclic Nucleotide Signaling” (Frontiers in Pharmacology, 2021) come the findings set out here.

Several values for one entry are separate records, joined by “and”; a condition that tells them apart may be missing. Equal entries are not always repeated.

In one test the test system is cGMP. Description: Measurement of cGMP in washed platelets (ELISA). It is filed as cell-based, rat. The conditions noted are these: single replicates. As for the experimental part:
Washed platelets were preincubated with vehicle or various concentrations of naringenin in the presence of 2 mM CaCl2 at 37°C for 5 min and then stimulated with ADP (10 μM) for 5 min for platelet aggregation. The reaction was terminated by adding EDTA (10 mM). The platelets were boiled for 5 min at 100 °C followed by centrifugation at 13,000 × g for 5 min cAMP and cGMP levels in the supernatant were measured using cAMP or cGMP enzyme immunoassay kits (Cayman Chemicals, Ann Arbor, MI, United States).
FIGURE 6 Naringenin elevates platelet cGMP levels and inhibits phosphodiesterase activity. The levels of cAMP (A) and cGMP (B) in washed platelets preincubated with vehicle or naringenin (100, 200, 400, and 800 μmol/L) were determined after stimulation with ADP (10 μmol/L) using ELISA kits. Similarly, the levels of cAMP (C) and cGMP (D) were determined in resting platelets incubated with naringenin (200, 400, and 800 μmol/L) or vehicle for 5 min. R represents the levels of cAMP or cGMP in resting platelets. Data are expressed as means ± SD (n = 4). *p < 0.05, ***p < 0.001 compared with the vehicle control group. The effects of naringenin on phosphodiesterase activity were measured by HPLC on the hydrolysis of cAMP (E) and cGMP (F). The level of phosphodiesterase activity obtained with vehicle control (0 μM) was taken as 100%. Data are expressed as means ± SD (n = 3). *p < 0.05, ***p < 0.001 compared with the vehicle control group.
A general note: ELISA stands for enzyme-linked immunosorbent assay.

The test system of another test is PI3Kp110β. Description: Immunoblotting of PI3Kp110β in ADP-stimulated washed platelets. The test is classed as cell-based, rat. The note with it: ADP 10 μmol/L, single replicates; for PI3Kp110β / GAPDH: raw data. As to the method: (§1) For in vitro platelet aggregation, aliquots of washed platelets were preincubated with vehicle or various concentrations of naringenin for 5 min and stimulated with ADP (10 μmol/L) under stirring at 37°C for 5 min. For ex vivo platelet aggregation, PRP was incubated at 37°C for 5 min and stimulated with ADP (5 μmol/L) under stirring at 37 °C. The platelet aggregation was terminated by adding ethylenediaminetetraacetic acid (EDTA; 10 mM). Total protein was prepared using RIPA lysis buffer and protein content was determined by bicinchoninic acid (BCA) protein assay kit. Equal amounts of platelet proteins (30 μg) were separated on 10% SDS polyacrylamide gel electrophoresis (SDS-PAGE) and then transferred to poly vinylidene difluoride (PVDF) membranes and subjected to western blot. Blots were blocked with TBS-Tween 20 containing 5% BSA and probed with primary antibodies diluted in blocking solution at 4°C overnight followed by incubation with the corresponding HRP secondary antibodies. The protein bands were visualized using enhanced chemiluminescence (ECL).
FIGURE 4 Naringenin inhibits PI3K-mediated signaling in ADP-induced platelets. Washed rat platelets were preincubated without or with naringenin at 37°C for 5 min, and then stimulated with ADP (10 μmol/L) under stirring for 5 min. Platelet proteins were then extracted and analyzed by immunoblotting using PI3Kp110β antibody (A) and phospho-specific antibodies such as Akt^Ser473 (B), Akt^Thr308 (C), ERK1/2^Thr202/Tyr204 (D) and GSK3β^Ser9 (E). Total level of GAPDH was measured on each sample as a loading control. The blots shown are representative of three separate experiments. The relative protein expression levels were quantified by ImageJ 1.47v software. The level of relative protein expression obtained with vehicle control (0 μM) was taken as 1. R represents the level of relative protein expression in resting platelets. Data are expressed as means ± SD (n = 3). *p < 0.05, **p < 0.01, ***p < 0.001 compared with the vehicle control group.
(A western blot detects proteins with antibodies after separation by electrophoresis.)

In another test the test system is washed rat platelets. Description: ADP (10 μM)-induced aggregation of washed rat platelets. It is filed as cell-based. The conditions noted are these: H89+Naringenin (200 μM)+ADP (10 μM); Figure 7E.
Test [1] relates to Akt Thr308 phosphorylation. The experiment in a line: Ex vivo immunoblotting of phospho-Akt (Thr308) in ADP-stimulated PRP of treated rats. The conditions noted are these: for p-Akt Thr308 / t-Akt (Fold to Control) / p-Akt Thr308 / t-Akt (raw data): ex vivo, Figure 8D. Also on record: species or system rat. As to the method:
Male SD rats were randomly divided into 5 groups with 6 rats in each group. […] Sixty minutes after the last sample treatment, blood was drawn from the abdominal aorta of rats into the siliconized vacutainers containing 1:9 (v/v) 3.8% sodium citrate. The collected blood was centrifuged at 100 × g for 10 min at room temperature to obtain PRP. […] The platelet counts of PRP were adjusted to 4×10^8 cells/mL using PPP. PRP was incubated for 5 min at 37°C and then stimulated by ADP (5 μM). The maximum platelet aggregation rate was determined as mentioned above.
as §1
Blood was collected and PRP was obtained after the last treatment. Platelet aggregation was induced by ADP (5 μmol/L) (A). Data are expressed as means ± SD (n = 6). After ADP stimulation, platelet proteins were then extracted and analyzed by immunoblotting using PI3Kp110β antibody (B) and phospho-specific antibodies such as Akt^Ser473 (C), Akt^Thr308 (D) and ERK1/2^Thr202/Tyr204 (E). Total level of GAPDH was measured on each sample as a loading control. The blots shown are representative of three separate experiments. The relative protein expression levels were quantified by ImageJ 1.47v software. The level of relative protein expression obtained with vehicle control was taken as 1. R represents the level of relative protein expression in resting platelets. Data are expressed as means ± SD (n = 3). *p < 0.05, **p < 0.01, ***p < 0.001 compared with the vehicle control group (Con).
To further investigate the antiplatelet mechanisms of naringenin ex vivo, several signaling molecules such as PI3Kp110β, Akt and ERK were detected. After oral administration of naringenin (200, 400, and 800 mg/kg) to rats for 7 days, rat PRP was prepared and stimulated by ADP (5 μmol/L), and platelets were lysed to determine protein phosphorylation levels using western blot.

As for `O=C1C[C@@H](c2ccc(O)cc2)Oc2cc(O)cc(O)c21` [Naringenin], the “cGMP release” value in the test on cGMP (ADP 10 μmol/L-stimulated platelets, 100 μM) was 24.01 pmol/mL and 25.36 pmol/mL and 20.40 pmol/mL and 17.36 pmol/mL; in the test on cGMP (ADP 10 μmol/L-stimulated platelets, 200 μM), 33.37 pmol/mL and 25.13 pmol/mL and 28.27 pmol/mL and 30.16 pmol/mL; in the test on cGMP (ADP 10 μmol/L-stimulated platelets, 400 μM) it was 35.44 pmol/mL and 31.24 pmol/mL and 34.51 pmol/mL and 37.74 pmol/mL; in the test on cGMP (ADP 10 μmol/L-stimulated platelets, 800 μM), 43.44 pmol/mL and 33.82 pmol/mL and 49.35 pmol/mL and 41.72 pmol/mL; in the test with cGMP (resting platelets, 200 μM, 5 min), 32.45 pmol/mL and 25.29 pmol/mL and 28.34 pmol/mL and 23.70 pmol/mL; with cGMP (resting platelets, 400 μM, 5 min), 30.89 pmol/mL and 30.12 pmol/mL and 36.90 pmol/mL and 24.38 pmol/mL. The “cGMP release” value in the test with cGMP (resting platelets, 800 μM, 5 min) is 36.72 pmol/mL and 44.35 pmol/mL and 55.79 pmol/mL and 49.00 pmol/mL. Further, the “PI3Kp110β / GAPDH” value in the test with PI3Kp110β (100 μM) was 0.2747 and 0.1851 and 0.4122; with PI3Kp110β (200 μM), 0.2677 and 0.1570 and 0.3210; in the test on PI3Kp110β (400 μM), 0.1072 and 0.1459 and 0.2766; in the test on PI3Kp110β (800 μM) it was 0.0408 and 0.0426 and 0.1130. For the same compound, the “PI3Kp110β / GAPDH (Fold to ADP only)” value in the test on PI3Kp110β (100 μM) was 0.5384 Fold to ADP only and 0.3629 Fold to ADP only and 0.8080 Fold to ADP only; in the test with PI3Kp110β (200 μM), 0.5248 Fold to ADP only and 0.3077 Fold to ADP only and 0.6292 Fold to ADP only; with PI3Kp110β (400 μM), 0.2102 Fold to ADP only and 0.2861 Fold to ADP only and 0.5422 Fold to ADP only; in the test on PI3Kp110β (800 μM) it was 0.0801 Fold to ADP only and 0.0835 Fold to ADP only and 0.2214 Fold to ADP only. Also, the “Aggregation (%)” value with washed rat platelets is 25.0% and 17.3% and 32.6% and 33.0% and 28.0% and 21.0%. The “p-Akt Thr308 / t-Akt (Fold to Control)” value was 0.5157 and 0.5526 and 0.5291 in test [1] (naringenin 200mg/kg); 0.3273 and 0.3649 and 0.3395 in test [1] (naringenin 400mg/kg); 0.3636 and 0.3541 and 0.3985 in test [1] (naringenin 800mg/kg). The “p-Akt Thr308 / t-Akt (raw data)” value was 0.4340 and 0.4650 and 0.4452 in test [1] (naringenin 200mg/kg); 0.2755 and 0.3071 and 0.2857 in test [1] (naringenin 400mg/kg); 0.3060 and 0.2979 and 0.3354 in test [1] (naringenin 800mg/kg). The “phosphorylation of Akt at Thr308 in rat PRP ex vivo” value in test [1] (rats, oral 200, 400, and 800 mg/kg for 7 days, ADP 5 μmol/L) is reported as “significantly suppressed”.
